Reference: publication PMC9861386, “N-Heterocyclic Carbene-Iridium Complexes as Photosensitizers for In Vitro Photodynamic Therapy to Trigger Non-Apoptotic Cell Death in Cancer Cells” (Molecules, 2023)

How the values were obtained:
[1] = system: PC-3 cells; assay: Subcellular localization by confocal microscopy with MitoTracker Deep Red; format: cell-based, human; conditions: 500 nM, 24 h
Source text: The intracellular localization of complex 4a was studied by confocal laser scanning microscopy. The treatment of PC-3 (human prostate) cells with complex 4a led to the development of intense fluorescence in the cytoplasm (Figure 9B). Specific subcellular location was investigated by staining the organelles with the specific fluorescent probe MitoTracker Deep Red (Figure 9C). […] However, an accumulation of complex 4a in lysosomes or the endoplasmic reticulum cannot be excluded.
Cell imaging was performed on an LSM 710 NLO-Meta confocal microscope with spectral detection (Zeiss, Göttingen, Germany). Images were taken through a 40×/1.2 W objective. Microscopy imaging experiments were performed with PC-3 cells that were cultured in 6-well plates and on glass slides (180,000 cells per well) for 18 h before incubation with complex 4a at different concentrations (0.25 μM, 0.5 μM and 1 μM) for various times. After 24 h, the MitoTracker deep red probe (Fisher Scientific, Illkirch, France) was incubated on live cells at a final concentration of 200 nM during 15 min at 37 °C in a 5% CO2 humidified incubator and then observed in one pass two channels 440–544 nm for complex 4a (two-photon excitation at 720 nm) and 644–700 nm for MitoTracker (excitation at 633 nm) at the same time. Merged images were generated to evaluate colocalization of the mitochondrial probe with complex 4a. […]

[2] = system: MCF7/FasR cells; assay: Cell death with or without pan-caspase inhibitor z-VAD-fmk, MTT; format: cell-based, human; conditions: 500 nM complex, 10 µM z-VAD-fmk, 458 nm irradiation, 72 h
Source text: To determine the mechanism of cell death, we used MCF7 cells transfected to express the human Fas receptor (FasR) or doubly transfected to express the human Fas receptor and human Bcl-xL [75]. Since MCF7 cells express the TNF receptor endogenously, this allowed the study of both Fas- and TNFα-mediated apoptosis in the same cell model to assess whether cell death was dependent on the Bcl-2 family of mitochondrial proteins such as Bcl-xL. […] This is consistent with findings that death receptors such as FasR and TNFR can mediate apoptosis through both the extrinsic pathway (mitochondria-independent by directly activating executioner caspases via upstream caspase-8) and the intrinsic (mitochondrial) pathway controlled by the Bcl-2 family of proteins.
We next evaluated the effect of the pan-caspase inhibitor z-VAD-fmk on caspase signaling. As expected, the treatment with z-VAD-fmk rendered MCF7/FasR cells resistant to TNFα-induced PARP and caspase-7 processing (Figure 14A) and to the loss of cell viability (Figure 14B).
A tetrazolium-based MTT reagent (3-(4,5-dimethylthiazol-2-yl)-2,5-diphenyltetrazolium bromide) was used to determine cell viability, as previously described. After 72 h of treatment at 37 °C and 5% CO2, cells were incubated with 25 μL MTT solution (5 mg/mL; Sigma-Aldrich) for 4 h. After solubilization with 500 μL of lysis buffer (DMSO), formazan was quantified by spectrophotometry with a microplate reader at 570 nm absorbance (ClarioSTAR, BMG LabTech, Champigny-sur-Marne, France). […] All results were calculated from data obtained in at least three independent experiments.
Figure 11 Bcl-xL and z-VAD-fmk inhibited by Fas- or TNFα-induced cell death in MCF7 cells. […] Cell death was assessed by MTT assay. […]
Figure 14 Evaluation of apoptotic biomarkers. […] (B) Cell viability was evaluated in duplicate samples. Data are expressed as percent (%) of untreated cells and are the means of 3 independent experiments (***, p < 0.0001, NS, not significant).

CC(C)[n+]1ccn2[c]1[Ir-3]13([c]4ccccc4-c4cccc[n+]41)([c]1ccccc1-c1cccc[n+]13)[c]1n(cc[n+]1C(C)C)C2.F[P-](F)(F)(F)(F)F [Complex 4a]
Pearson colocalization coefficient with MitoTracker Deep Red (mitochondria) [1]: 88%
effect of z-VAD-fmk on cell death induced by the complex [2]: could not prevent cell death
